The compounds below were run against Sphingosine 1-phosphate receptor 4 (Homo sapiens) (UniProt O95977) (assay: S1P4 receptor antagonists, human, late-stage follow-up, cell-based, fluorescence, synthesized analogues (AID 2346)). Settings: S1P4-expressing cells, antagonist fluorescence read-out.
Chain of Sphingosine 1-phosphate receptor 4 (Homo sapiens) (O95977 whole entry, looked up): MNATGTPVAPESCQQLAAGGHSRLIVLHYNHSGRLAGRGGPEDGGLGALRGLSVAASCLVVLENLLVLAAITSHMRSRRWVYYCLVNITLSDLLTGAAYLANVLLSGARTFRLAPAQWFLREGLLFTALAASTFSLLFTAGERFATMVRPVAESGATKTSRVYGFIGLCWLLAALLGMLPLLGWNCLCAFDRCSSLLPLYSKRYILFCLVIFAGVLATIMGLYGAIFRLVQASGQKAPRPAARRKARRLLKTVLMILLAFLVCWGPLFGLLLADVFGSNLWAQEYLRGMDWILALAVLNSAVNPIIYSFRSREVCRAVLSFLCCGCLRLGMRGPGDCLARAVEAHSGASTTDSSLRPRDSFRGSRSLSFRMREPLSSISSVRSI

Row | SMILES | IC50
1 | COc1cccc(OC)c1NC(=O)c1ccc(-c2cc(Cl)ccc2Cl)o1 | 417 nM
2 | Cc1ccc(S(C)(=O)=O)c(C)c1NC(=O)c1ccc(-c2cc(Cl)ccc2Cl)o1 | 302 nM
3 | CCc1cccc(CC)c1NC(=O)c1ccc(-c2cc(Cl)ccc2Cl)o1 | 89 nM
4 | Cc1ccc2ccccc2c1NC(=O)c1ccc(-c2cc(Cl)ccc2Cl)o1 | 253 nM
5 | Cc1cccc(Cl)c1NC(=O)c1ccc(-c2cc(Cl)ccc2Cl)o1 | 169 nM
6 | CC(C)c1cccc(C(C)C)c1NC(=O)c1ccc(-c2cc(Cl)ccc2Cl)o1 | 105 nM

Continued by falling IC50, values first:

Row | IC50 | SMILES
7 | 497 nM | Cc1cccc(C)c1NC(=O)c1ccc(-c2cccc(Cl)c2)o1
8 | 308 nM | Cc1cccc(C)c1NC(=O)c1ccc(-c2cc(F)ccc2F)o1
9 | 286 nM | Cc1cscc1-c1ccc(C(=O)Nc2c(C)cccc2C)o1
10 | 165 nM | Cc1ccc(C)c(NC(=O)c2ccc(-c3cc(Cl)ccc3Cl)o2)c1
11 | 163 nM | COc1cccc(C)c1NC(=O)c1ccc(-c2cc(Cl)ccc2Cl)o1
